The results in this text go back to patent US20050020668A1, “Combination comprising S-[2-([[1-(2-ethylbutyl)cyclohexyl] carbonyl]amino)phenyl] 2-methylpropanethioate and an HMG CoA reductase inhibitor” (Japan Tobacco Inc., priority 2003, published 2005).

Marks after values point to notes of the source that are not given here.

Experiment [1] deals with male Japanese white rabbits receiving a high-cholesterol diet. The experiment in a line: Atherogenic index in rabbits receiving a high-cholesterol diet. The following applies: control group = 100%, in 0.2% cholesterol diet for 7 days: Compound I 0.5%. The experiment is classed as in vivo, rabbit. On the procedure:
Prior to commencement of the study, male Japanese white rabbits (KITAYAMA LABES Co., Ltd.) received a normal diet (RC-4, manufactured by Oriental Bio-Service Inc.) (Time Period 1) and water ad libitum. For preliminary feeding, male Japanese white rabbits were provided with a high cholesterol diet comprising 100 g/day per rabbit of RC-4 containing 0.2% cholesterol (manufactured by Oriental Bio-Service Inc.) for 4 weeks (Time Period 2). […] For 7 days (Time Period 3), each group was administered a high cholesterol diet comprising 100 g/day per rabbit of RC-4 containing 0.2% cholesterol and one of the following: • (1) Control (no additional components) • (2) Compound I (0.5%) • (3) Simvastatin (extracted and purified from LipovasTM Tablets-5, Banyu Pharmaceutical Co.) (0.075%) • (4) Atorvastatin calcium trihydrate (extracted and purified from LipitorTM Tablets-10, Pfizer Inc.) (0.075%) • (5) Rosuvastatin calcium (extracted and purified from CrestorTM Tablets, Astra Zeneca) (0.025%) • (6) Compound I (0.5%)+simvastatin (0.075%) • (7) Compound I (0.5%)+atorvastatin calcium trihydrate (0.075%) • (8) Compound I (0.5%)+rosuvastatin calcium (0.025%) […] Atherogenic index was calculated as follows: [(total cholesterol content-HDL cholesterol content)/HDL cholesterol content]. […] A similar experiment was conducted to evaluate the effect of the administration of Compound I and pravastatin sodium ([…] Ltd.) on 12-week old male Japanese white rabbits receiving a high-cholesterol diet.

The subject of experiment [2] is patients with type II hyperlipidemia. The experiment in a line: Clinical study: Compound I added to pravastatin sodium therapy, lipid parameters. The experiment is classed as in vivo, human. The following applies: for Mean percent change of HDL-C from levels before administration of Compound I / Mean percent change of LDL-C from levels before administration of Compound I / Mean percent change of LDL-C/HDL-C ratio from levels before administration of Compound I / Mean percent change of TC/HDL-C ratio from levels before administration of Compound I: Visit 5 or 6 vs average of Visits 3 and 4, per protocol. The text has this:
(§1) This example describes a multi-center, randomized, double-blind, placebo-controlled, parallel group study designed to evaluate the therapeutic effect of the combination of S-[2-([[1-(2-ethylbutyl)cyclohexyl]carbonyl]amino)phenyl]2-methylpropanethioate (Compound I) and pravastatin sodium in patients with hyperlipidemia.
Approximately 200 patients with type II hyperlipidemia were enrolled in the study to ensure that about 150 patients (about 50 patients per treatment group) completed the study. The patients met the following criteria: • (i) LDL-C>4.0 mmol/L (160 mg/dL), • (ii) HDL-C<1.6 mmol/L (60 mg/dL), • (iii) triglycerides<4.5 mmol/L (400 mg/dL), and • (iv) age 18-65 years.
(§2) The total study duration was 16 weeks, which consisted of three periods. During Period 1, the first 8 weeks of the study, 40 mg of pravastatin sodium was taken once daily at bedtime by all enrolled patients. Patients were then randomized to receive placebo or 300 mg or 600 mg of Compound I once daily following breakfast for Period 2, the next 4-week period, in addition to the continued pravastatin sodium treatment. During Period 3, the last 4 weeks of the study, pravastatin sodium was administered alone.
Each pravastatin sodium tablet comprised 40 mg of pravastatin sodium that was provided as a branded commercial product (Selektine™, Bristol-Myers Squibb B.V.). Each Compound I tablet contained 300 mg of Compound I and was supplied as a white oval tablet that is identical in appearance to the placebo tablet. The uncoated white tablets comprising Compound I were prepared using standard tableting procedures. The tablets comprised 300 mg of Compound I, 18 mg of hydroxypropylmethyl cellulose 2910 as a binder, 18 mg of talc and 1.2 mg of magnesium stearate as lubricants, and 119.8 mg of crospovidone and 90 mg of low-substituted hydroxypropyl cellulose as disintegrants.
All patients received 2 uncoated white tablets, such that each patient received either (a) one 300 mg Compound I tablet and one placebo tablet, (b) two 300 mg Compound I tablets, or (c) two placebo tablets during Period 2.
(§3) Blood samples were taken at Visit 1 (−10 weeks relative to commencement of treatment with Compound I or placebo) to determine eligibility, and at Visit 2 (−8 weeks; commencement of treatment with pravastatin sodium), Visit 3 (−2 weeks), Visit 4 (commencement of treatment with Compound I or placebo), Visit 5 (+2 weeks after commencement of treatment with Compound I or placebo), Visit 6 (+4 weeks; end of treatment with Compound I or placebo), and Visit 7 (+8 weeks; end of treatment with pravastatin sodium). Each blood sample was tested for levels of lipid parameters (e.g., total cholesterol, triglycerides, HDL-C, LDL-C), CETP activity and mass, the plasma concentration of Compound I (trough level), as well as laboratory safety parameters (e.g., urinalysis, biochemistry, and hematology).
Efficacy analyses included both descriptive summary and statistical modeling, such as analysis of variance (ANOVA) or analysis of covariance (ANCOVA). The descriptive summary included frequencies and percentages for categorical variables and statistics such as the number of available observations, mean, median, standard deviation, minimum, and maximum for all variables.
To determine the effect of the administration of Compound I on a patient receiving HMG CoA reductase inhibitor therapy, the mean values of HDL-C, LDL-C, TC/HDL-C ratio, LDL-C/HDL-C ratio, and CETP activity before administration of Compound I (average of values at Visits 3 and 4) and after the administration of Compound I (Visit 5 or 6) were compared. An ANOVA model containing treatment and center effects was used. […]

The target in experiment [3] is T1, CETP (Homo sapiens, UniProt P11597).
T1 construct: from tissue; host or cells: blood (plasma) samples of hyperlipidemic patients
T1 sequence (P11597 18-493): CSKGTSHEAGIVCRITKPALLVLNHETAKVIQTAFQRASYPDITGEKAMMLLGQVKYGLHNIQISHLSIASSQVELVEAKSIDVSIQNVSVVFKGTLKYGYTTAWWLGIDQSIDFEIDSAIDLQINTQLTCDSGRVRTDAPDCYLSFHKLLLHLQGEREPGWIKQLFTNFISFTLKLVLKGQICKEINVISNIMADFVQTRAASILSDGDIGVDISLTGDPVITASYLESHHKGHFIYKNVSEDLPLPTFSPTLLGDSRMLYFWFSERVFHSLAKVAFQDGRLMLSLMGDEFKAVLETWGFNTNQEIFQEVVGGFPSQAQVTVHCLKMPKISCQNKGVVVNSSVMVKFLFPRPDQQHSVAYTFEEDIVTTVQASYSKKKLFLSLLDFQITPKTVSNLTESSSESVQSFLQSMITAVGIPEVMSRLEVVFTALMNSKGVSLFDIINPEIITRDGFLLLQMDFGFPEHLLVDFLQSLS
In words: Clinical study: Compound I added to pravastatin sodium therapy, CETP activity in blood samples. The experiment is classed as in vivo. The following applies: for Mean percent change of CETP activity from levels before administration of Compound I: Visit 5 or 6 vs average of Visits 3 and 4, per protocol; for Decrease in CETP activity relative to levels achieved by pravastatin sodium alone: patients receiving pravastatin sodium therapy. As to the method:
CETP activity is measured essentially as described in Tollefson et al., Methods Enzymol., 129, 797-816 (1986), and Kato et al., J. Biol. Chem., 264, 4082-4087 (1989). Preferably, the CETP activity at 2 weeks (or 4 weeks, 8 weeks, 12 weeks, or six months) post-treatment initiation is decreased by about 5% or more relative to CETP activity pretreatment (e.g., about 7.5% or more, about 10% or more, about 15% or more, about 20% or more, about 25% or more, about 30% or more, about 35% or more, about 40% or more, about 45% or more, about 50% or more, about 55% or more, about 60% or more, or about 65% or more).
as §1, §2
as §3, with “hematology). […]” for “hematology).”
Table 2 describes the percent change in HDL-C, LDL-C, TC/HDL-C ratio, LDL-C/HDL-C ratio, and CETP activity from the values of patients receiving pravastatin sodium therapy (average of Visit 3 and 4 values) to the values following administration of Compound I or placebo and pravastatin sodium (Visit 5 or 6). P values were determined by comparing the groups administered Compound I to the placebo group using an ANOVA model with percent change as the dependent variable and treatment and center as the fixed effects. […]

[4] abbreviates: Table 3 experiment, simvastatin 0.075%, atorvastatin calcium trihydrate 0.075%, rosuvastatin calcium 0.025%, blood 8 hours after feeding on Day 7.
Setting [5] is: Table 4 experiment, pravastatin sodium 0.075%.
[6] abbreviates: 300 mg Compound I once daily + 40 mg pravastatin sodium, n = 45.
The mark [7] stands for this setting: 300 mg treatment group, patients receiving pravastatin sodium therapy.
Setting [8] is: 600 mg Compound I once daily + 40 mg pravastatin sodium, n = 42.
Setting [9] is: 600 mg treatment group, patients receiving pravastatin sodium therapy.

On to `CC(C)c1nc(N(C)S(C)(=O)=O)nc(-c2ccc(F)cc2)c1/C=C/[C@@H](O)C[C@@H](O)CC(=O)[O-].CC(C)c1nc(N(C)S(C)(=O)=O)nc(-c2ccc(F)cc2)c1/C=C/[C@@H](O)C[C@@H](O)CC(=O)[O-].[Ca+2]` [Rosuvastatin calcium], for which the “Atherogenic Index (%)” value in experiment [1] (setting [4]) was 81%.

With `CC[C@H](C)C(=O)O[C@H]1C[C@H](O)C=C2C=C[C@H](C)[C@H](CC[C@@H](O)C[C@@H](O)CC(=O)O)[C@H]21` [Pravastatin sodium], the “Atherogenic Index (%)” value in experiment [1] (setting [5]) is given as 40%.

`CC(C)c1c(C(=O)Nc2ccccc2)c(-c2ccccc2)c(-c2ccc(F)cc2)n1CC[C@@H](O)C[C@@H](O)CC(=O)O` [Atorvastatin calcium trihydrate]: the “Atherogenic Index (%)” value in experiment [1] (setting [4]) was found to be 49%.

For `CCC(C)(C)C(=O)O[C@H]1C[C@@H](C)C=C2C=C[C@H](C)[C@H](CC[C@@H]3C[C@@H](O)CC(=O)O3)[C@H]21` [Simvastatin], the “Atherogenic Index (%)” value in experiment [1] (setting [4]) amounted to 51%.

Regarding `CCC(CC)CC1(C(=O)Nc2ccccc2SC(=O)C(C)C)CCCCC1` [Compound I, S-[2-([[1-(2-ethylbutyl)cyclohexyl]carbonyl]amino)phenyl]2-methylpropanethioate], in experiment [2] (setting [6]), the “Mean percent change of HDL-C from levels before administration of Compound I” value is on record as 12.96* %, the “Mean percent change of LDL-C from levels before administration of Compound I” value is reported as 1.57%, the “Mean percent change of LDL-C/HDL-C ratio from levels before administration of Compound I” value is −10.31^† % and the “Mean percent change of TC/HDL-C ratio from levels before administration of Compound I” value is reported as −8.09^† %. In experiment [2] (setting [7]), the “Decrease in LDL-C/HDL-C ratio relative to levels achieved by pravastatin sodium alone” value is reported as “about 10%”, the “Decrease in TC/HDL-C ratio relative to levels achieved by pravastatin sodium alone” value was “about 8%” and the “Increase in HDL-C levels relative to levels achieved by pravastatin sodium alone” value is on record as “about 13%”. In addition, in experiment [2] (setting [8]), the “Mean percent change of HDL-C from levels before administration of Compound I” value was 28.43* %, the “Mean percent change of LDL-C from levels before administration of Compound I” value is on record as −7.91^‡ %, the “Mean percent change of LDL-C/HDL-C ratio from levels before administration of Compound I” value is reported as −26.03* % and the “Mean percent change of TC/HDL-C ratio from levels before administration of Compound I” value is recorded as −18.72* %. Also, in experiment [2] (setting [9]), the “Decrease in LDL-C levels relative to level achieved by pravastatin sodium alone” value was “about 8%”, the “Decrease in LDL-C/HDL-C ratio relative to levels achieved by pravastatin sodium alone” value was “about 26%”, the “Decrease in TC/HDL-C ratio relative to levels achieved by pravastatin sodium alone” value is on record as “about 19%” and the “Increase in HDL-C levels relative to levels achieved by pravastatin sodium alone” value is “about 28%”. Besides, the “Mean percent change of CETP activity from levels before administration of Compound I” value in experiment [3] (setting [6]) is −18.10* %. For the same compound, in experiment [3] (300 mg treatment group), the “Decrease in CETP activity relative to levels achieved by pravastatin sodium alone” value was “about 18%”. Also, in experiment [3] (setting [8]), the “Mean percent change of CETP activity from levels before administration of Compound I” value was −31.62* %. For the same compound, the “Decrease in CETP activity relative to levels achieved by pravastatin sodium alone” value in experiment [3] (600 mg treatment group) is given as “about 32%”. Further, the “Atherogenic Index (%)” value in experiment [1] (setting [4]) is reported as 54%. For the same compound, the “Atherogenic Index (%)” value in experiment [1] (setting [5]) worked out at 60%.
